# Experimental data published in PubChem BioAssay (NCI).
#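 Growth conditions: 96-well plates. Treatment: test compound, 48 hours, 5 concentrations. Analysis: linear interpolation between bracketing concentrations; unreached endpoints set to highest concentration. GI50: concentration for 50% inhibition of growth. TGI denotes the concentration required for complete inhibition of growth.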
# Key:
# Assay in all cases: NCI tumour cell line growth inhibition, 48 h
# 786-0 renal = tested on: 786-0 renal
# A498 renal = tested on: A498 renal
# A549 NSCLC = tested on: A549 NSCLC
# ACHN renal = tested on: ACHN renal
# BT-549 breast = tested on: BT-549 breast
# CAKI-1 renal = tested on: CAKI-1 renal
# CCRF-CEM leukemia = tested on: CCRF-CEM leukemia
# COLO 205 colon = tested on: COLO 205 colon
# DU-145 prostate = tested on: DU-145 prostate
# EKVX NSCLC = tested on: EKVX NSCLC
# HCC-2998 colon = tested on: HCC-2998 colon
# HCT-116 colon = tested on: HCT-116 colon
# HCT-15 colon = tested on: HCT-15 colon
# HL-60(TB) leukemia = tested on: HL-60(TB) leukemia
# HOP-62 NSCLC = tested on: HOP-62 NSCLC
# HOP-92 NSCLC = tested on: HOP-92 NSCLC
# HS 578T breast = tested on: HS 578T breast
# HT29 colon = tested on: HT29 colon
# IGROV1 ovarian = tested on: IGROV1 ovarian
# K-562 leukemia = tested on: K-562 leukemia
# KM12 colon = tested on: KM12 colon
# LOX IMVI melanoma = tested on: LOX IMVI melanoma
# M14 melanoma = tested on: M14 melanoma
# MALME-3M melanoma = tested on: MALME-3M melanoma
# MCF7 breast = tested on: MCF7 breast
# MDA-MB-231 breast = tested on: MDA-MB-231 breast
# MDA-MB-435 = tested on: MDA-MB-435
# MOLT-4 leukemia = tested on: MOLT-4 leukemia
# NCI-H226 lung = tested on: NCI-H226 lung
compound,measurement,setting,value
Oc1ccccc1N=Cc1c(O)ccc2ccccc12,GI50,786-0 renal,19.5 µM
same,TGI,786-0 renal,68.3 µM
same,GI50,A498 renal,5.61 µM
same,TGI,A498 renal,23.6 µM
same,GI50,A549 NSCLC,24.6 µM
same,TGI,A549 NSCLC,91.9 µM
same,GI50,ACHN renal,4.96 µM
same,TGI,ACHN renal,42.6 µM
same,GI50,BT-549 breast,5.88 µM
same,TGI,BT-549 breast,30 µM
same,GI50,CAKI-1 renal,5.61 µM
same,TGI,CAKI-1 renal,26.6 µM
same,GI50,CCRF-CEM leukemia,3.2 µM
same,TGI,CCRF-CEM leukemia,47.1 µM
same,GI50,COLO 205 colon,30.7 µM
same,TGI,COLO 205 colon,> 100 µM
same,GI50,DU-145 prostate,19.5 µM
same,TGI,DU-145 prostate,> 100 µM
same,GI50,EKVX NSCLC,15.8 µM
same,TGI,EKVX NSCLC,57.8 µM
same,GI50,HCC-2998 colon,16.5 µM
same,TGI,HCC-2998 colon,72.4 µM
same,GI50,HCT-116 colon,13 µM
same,TGI,HCT-116 colon,46 µM
same,GI50,HCT-15 colon,15.3 µM
same,TGI,HCT-15 colon,> 100 µM
same,GI50,HL-60(TB) leukemia,4.95 µM
same,TGI,HL-60(TB) leukemia,33.3 µM
same,GI50,HOP-62 NSCLC,17.5 µM
same,TGI,HOP-62 NSCLC,97.6 µM
same,GI50,HOP-92 NSCLC,3.17 µM
same,TGI,HOP-92 NSCLC,18.5 µM
same,GI50,HS 578T breast,15 µM
same,TGI,HS 578T breast,> 100 µM
same,GI50,HT29 colon,16.4 µM
same,TGI,HT29 colon,40.1 µM
same,GI50,IGROV1 ovarian,4.84 µM
same,TGI,IGROV1 ovarian,26.1 µM
same,GI50,K-562 leukemia,15.3 µM
same,TGI,K-562 leukemia,> 100 µM
same,GI50,KM12 colon,16.5 µM
same,TGI,KM12 colon,> 100 µM
same,GI50,LOX IMVI melanoma,10.6 µM
same,TGI,LOX IMVI melanoma,45 µM
same,GI50,M14 melanoma,13.4 µM
same,TGI,M14 melanoma,40.2 µM
same,GI50,MALME-3M melanoma,5 µM
same,TGI,MALME-3M melanoma,27 µM
same,GI50,MCF7 breast,8.35 µM
same,TGI,MCF7 breast,52.3 µM
same,GI50,MDA-MB-231 breast,5.75 µM
same,TGI,MDA-MB-231 breast,27.5 µM
same,GI50,MDA-MB-435,17 µM
same,TGI,MDA-MB-435,52.6 µM
same,GI50,MOLT-4 leukemia,10.2 µM
same,TGI,MOLT-4 leukemia,80.3 µM
same,GI50,NCI-H226 lung,11.5 µM
same,TGI,NCI-H226 lung,61.7 µM
